Reference: patent US5760214A, “Bone resorption inhibition/osteogenesis promotion compound” (Iskra Industry Co., Ltd., priority 1993, dated 1998)

What was measured:
[1] = Intracorporeal Distribution of Compound (Experiment 1); type: in vivo; conditions: mice, 20 μCi/20 g; for drug concentration in blood: i.v. tail vein, 3H, mean; for drug quantity in tissue: brain / drug quantity in tissue: muscle / drug quantity in tissue: stomach: i.v.
Protocol: The compound 1-3 produced in Synthesis Example 1-3 was subjected to radioactive labelling by ^3 H (0.34 mCi/mg), and was injected into the vein of the tail of mice in a dosage of 20 μCi/20 g. Groups of mice each comprising five mice were killed at 1 minute, 5 minutes, 15 minutes, 30 minutes, 1 hour, 4 hours, 6 hours, 24 hours, 48 hours and 72 hours after the injection, and 50 μl of the blood was collected from the eye socket of each mouse. Further, the heart, the womb, the small intestine, bones (thighbone), etc., were collected from each mouse, and 50 mg of the tissue (50 μl for the blood) was placed into a plastic test tube. Further, 0.2 ml of perchloric acid, 0.4 ml of hydrogen peroxide and a drop of n-octyl alcohol were put into the test tube, and the test tube was left in a water bath at 75° C. for 45 minutes. Next, 0.1 ml of this digestive fluid was sampled and was placed into a bottle storing a scintillating solution and furthermore, 5 ml of 0.5% scintillating solution was mixed. After the solution became transparent, it was placed into an FJ2105 liquid scintillation counter so as to measure radioactivity and to determine cpm of the sample. Separately, dpm of 52 samples obtained from four groups of animals was measured (External Standard Method).
The quantity of the drug inside the tissue was determined in the following way.
Drug quantity in tissue (cpm/mg)=(sample cpm).div.(digested tissue quantity (mg))
Drug quantity in tissue (μg/mg)=(sample cpm/mg×6)[…](count efficiency (E)×2.22×10^7 ×0.34 mCi/mg (specific radioactivity))

[2] = system: osteoblast originating from the calvaria of Whister rats; experiment: Osteogenesis Test (1) (Experiment 3), von Kossa dyeing; type: cell-based; conditions: 10^-8 M, addition in calcification period
Protocol: A first generation incubation system of the osteoblast originating from the calvaria of Whister rats (female, 6-months' age) was used as the test cells. After the start of incubation, the sample drug (compound 1-3) was added once a day to the medium in a dose of 10^-6 M, 10^-8 M or 10^-9 M on the second and third days (propagation period). Alternatively, the compound 1-3 in the amount described above was added once a day to the medium for 4 days (calcification period) from the seventh day from the start of incubation. On the fourteenth day from the start of incubation, the cells were subjected to von Kossa dyeing and detection of phosphates was carried out. The area of the bone knots which were dyed to brown was confirmed by the naked eye and was used as the index for osteogenesis.

mice = experiment: Acute Toxicity Test (Experiment 2); type: in vivo, mice (Kunming species); conditions: for No. of dead animals: of 10 animals
Protocol: The compound 1-3 was pale yellow crystalline poweder and its lot number was 930113. The solution was a pale yellow transparent solution, and has a concentration of 50 mg/ml and a pH of about 5. It was offered from Osteoporosis Research Laboratory, Department of Pharmacy, West China University of Medical Science School (WCUMS).
Kunming species mice, health: first class, weight: 18 to 21 g, half male and half female. The mice were offered from Experimental Animal Center of WCUSM.
Four to five dose groups were prepared in equal ratios (1:0.7 to 0.8) within the LD range of 0 to 100% obtained by preliminary tests. The drug for peroral administration was prepared by suspending the solid compound 1-3 in 1% CMCNa2 to form a suspension. For injection, drug solutions having different concentrations were prepared by dissolving the compound 1-3 in physiological saline solution by a low specific gravity dilution method. The animals were starved (but without limiting water), and 20 hours later, ten mice were grouped at random into each group irrespective of their sex and body weight. The drug was dosed once a day in a dose of 0.2 ml/10 g and the animals were inspected. Dead animals were dissected and any change of the morbid state was examined with by the naked eye.
After the chemical was dosed once in the maximum concentration and in the maximum capacity for peroral administration to 20 mice (10 males and 10 females), the animals were examined for 7 days. […] The maximum tolerance dose (MTD) was >6 g/kg.

[3] = system: synthesis of bone proteins; conditions: cell level, U.S. Pat. No. 4,925,833; cited from earlier work
[4] = peroral, maximum concentration, single dose, 7 days

CN(C)C1C(=O)C(C(=O)NCN2CCN(CCOc3ccc4c(c3)CCC3C4CCC4(C)C(=O)CCC34)CC2)=C(O)C2(O)C(=O)C3=C(O)c4c(O)cccc4C(C)(O)C3CC12 (stereo not shown) [Compound 1-3, N-4-[17-oxy-estra-1,3,5 (10)-trien-3-oxyethyl]-piperazine-1-methylene-tetracycline]
drug concentration in blood ([1]; 1 min): 8665 cpm/50 μl
drug concentration in blood ([1]; 5 min): 5238 cpm/50 μl
drug concentration in blood ([1]; 15 min): 2638 cpm/50 μl
drug concentration in blood ([1]; 30 min): 2347 cpm/50 μl
drug concentration in blood ([1]; 1 hr): 952 cpm/50 μl
drug concentration in blood ([1]; 4 hr): 659 cpm/50 μl
drug concentration in blood ([1]; 6 hr): 715 cpm/50 μl
drug concentration in blood ([1]; 24 hr): 523 cpm/50 μl
drug concentration in blood ([1]; 48 hr): 272 cpm/50 μl
drug concentration in blood ([1]; 72 hr): 190 cpm/50 μl
drug quantity in tissue: brain ([1]; 1 min): 20 cpm/mg tissue
drug quantity in tissue: muscle ([1]; 1 min): 28 cpm/mg tissue
drug quantity in tissue: stomach ([1]; 1 min): 30 cpm/mg tissue
drug quantity in tissue: brain ([1]; 5 min): 13 cpm/mg tissue
drug quantity in tissue: muscle ([1]; 5 min): 32 cpm/mg tissue
drug quantity in tissue: stomach ([1]; 5 min): 39 cpm/mg tissue
drug quantity in tissue: brain ([1]; 15 min): 9 cpm/mg tissue
drug quantity in tissue: muscle ([1]; 15 min): 15 cpm/mg tissue
drug quantity in tissue: stomach ([1]; 15 min): 28 cpm/mg tissue
drug quantity in tissue: brain ([1]; 30 min): 10 cpm/mg tissue
drug quantity in tissue: muscle ([1]; 30 min): 22 cpm/mg tissue
drug quantity in tissue: stomach ([1]; 30 min): 32 cpm/mg tissue
drug quantity in tissue: brain ([1]; 1 hour): 7 cpm/mg tissue
drug quantity in tissue: muscle ([1]; 1 hour): 11 cpm/mg tissue
drug quantity in tissue: stomach ([1]; 1 hour): 12 cpm/mg tissue
drug quantity in tissue: brain ([1]; 4 hours): 7 cpm/mg tissue
drug quantity in tissue: muscle ([1]; 4 hours): 7 cpm/mg tissue
drug quantity in tissue: stomach ([1]; 4 hours): 10 cpm/mg tissue
drug quantity in tissue: brain ([1]; 6 hours): 6 cpm/mg tissue
drug quantity in tissue: muscle ([1]; 6 hours): 6 cpm/mg tissue
drug quantity in tissue: stomach ([1]; 6 hours): 9 cpm/mg tissue
drug quantity in tissue: brain ([1]; 24 hours): 4 cpm/mg tissue
drug quantity in tissue: muscle ([1]; 24 hours): 4 cpm/mg tissue
drug quantity in tissue: stomach ([1]; 24 hours): 6 cpm/mg tissue
drug quantity in tissue: brain ([1]; 48 hours): 4 cpm/mg tissue
drug quantity in tissue: muscle ([1]; 48 hours): 5 cpm/mg tissue
drug quantity in tissue: stomach ([1]; 48 hours): 4 cpm/mg tissue
drug quantity in tissue: brain ([1]; 72 hours): 3 cpm/mg tissue
drug quantity in tissue: muscle ([1]; 72 hours): 4 cpm/mg tissue
drug quantity in tissue: stomach ([1]; 72 hours): 3 cpm/mg tissue
Osteogenesis promotion function, calcification period [2]: .uparw. .uparw.
toxicity (mice): its toxicity was extremely low
activity / behaviour after injection (mice; after intravenous injection): activity of the mice decreased and then the mice started jumping and went into spasm
difference between the sexes of the dead animals (mice; after intravenous injection): No difference was found between the sexes of the dead animals
eyeball, incontinence (mice; after intravenous injection): The eyeball protruded and changed to white, and incontinence of urine and feces was observed
time of death of poisoned animals (mice; after intravenous injection): the major proportion of the poisoned animals died instantly, an extremely few survived were also dead within 24 hours
change of the morbid state in dissection (mice; dead animals, naked eye): any change of the morbid state could not at all be observed by the naked eye
death ratio (mice; i.v. tail vein, 102.4 mg/kg): 0%
provit unit (Y) (mice; i.v. tail vein, 102.4 mg/kg): 2.60
No. of dead animals (mice; i.v. tail vein, 102.4 mg/kg): 0
death ratio (mice; i.v. tail vein, 128 mg/kg): 20%
provit unit (Y) (mice; i.v. tail vein, 128 mg/kg): 4.16
No. of dead animals (mice; i.v. tail vein, 128 mg/kg): 2
death ratio (mice; i.v. tail vein, 160 mg/kg): 80%
provit unit (Y) (mice; i.v. tail vein, 160 mg/kg): 5.84
No. of dead animals (mice; i.v. tail vein, 160 mg/kg): 8
death ratio (mice; i.v. tail vein, 200 mg/kg): 100%
provit unit (Y) (mice; i.v. tail vein, 200 mg/kg): 7.40
No. of dead animals (mice; i.v. tail vein, 200 mg/kg): 10
death ratio (mice; i.v. tail vein, 250 mg/kg): 100%
No. of dead animals (mice; i.v. tail vein, 250 mg/kg): 10
LD50 (mice; i.v. tail vein, Bliss method): 143.11 mg/kg
LD50, range of 95% reliability limit (mice; i.v. tail vein, Bliss method): 132.95 to 154.05 mg/kg
LD50 (mice; intravenous injection, tail vein): 143.11 mg/kg
abnormality in the mice (mice; [4]): no abnormality was found in the mice
death of mice (mice; [4]): no mouse was dead

CN(C)[C@@H]1C(O)=C(C(N)=O)C(=O)[C@@]2(O)C(O)=C3C(=O)c4c(O)cccc4[C@@](C)(O)[C@H]3C[C@@H]12 [tetracycline]
synthesis of bone proteins [3]: promotes the synthesis of bone proteins
